Test results as given in patent publication US10323019B2, “Pyrazolylaminobenzimidazole derivatives as JAK inhibitors” (Eli Lilly and Company, priority 2016, dated 2019).

Tested on: paw swelling in Lewis rats
Test: Rat collagen-induced arthritis (CIA) model
Type: in vivo
Procedure: Rat Collagen-Induced Arthritis (CIA) Model
This protocol uses Lewis rats (weight 150-175 grams) from Charles River. On day 0, anesthetize rats with Isoflurane. On day 1, immunize intradermally with collagen emulsion in two sites on the lower lumbar region, above the base of the tail. Dose volume is a minimum of 0.4 mL per injection site. On day 8, anesthetize rats with Isoflurane and immunize intradermally with collagen emulsion in two sites on the lower lumbar region, above the base of the tail. Enroll rats into treatment groups on day 12, based on inflammation (redness and/or swelling) in their hind paws. Randomize animals for Treatment Phase based on ankle measurement values and body weight using block randomization allocation tool. Record ankle swelling on days 1, 8, and 11 and then three times per week following enrollment up to and including the day of necropsy. Dose compounds orally once a day starting on day 12 (after randomization) up to day 25. The compounds of Examples 6 and 7 were evaluated in the protocol essentially as described above.

COc1cc(Nc2cc(O[C@H]3CC[C@@H](NC[C@@H](O)C(F)(F)F)CC3)cc3c2ncn3C)nn1C [Example 6, (2R)-1,1,1-Trifluoro-3-{[cis-4-({4-[(5-methoxy-1-methyl-1H-pyrazol-3-yl)amino]-1-methyl-1H-benzimidazol-6-yl}oxy)cyclohexyl]amino}propan-2-ol]
Rat paw swelling % inhibition at 3 mpk (3 mpk oral once a day day 12 to 25, naïve rat as 100% inhibition): 12% | Rat paw swelling % inhibition at 10 mpk (10 mpk oral once a day day 12 to 25, naïve rat as 100% inhibition): 47% | Rat paw swelling % inhibition at 30 mpk (30 mpk oral once a day day 12 to 25, naïve rat as 100% inhibition): 79%
